Key:
α-D-glucosidase [1] = molecular target: T1, α-D-glucosidase (Oryza sativa subsp. japonica, UniProt Q653V7); test: Glycosidase inhibition: α-D-glucosidase, rice; type: biochemical, rice (Oryza sativa); conditions: 1 mg/ml; read-out: % inhibition, gluc (rice)
T1 construct: purchased Sigma
Protocol: (§1) All enzymes were purchased from Sigma, as were the appropriate p-nitrophenyl substrates. Assays were carried out in microtitre plates. Enzymes were assayed in 0.1M citric acid/0.2M di-sodium hydrogen phosphate (McIlvaine) buffers at the optimum pH for the enzyme. All assays were carried out at 20° C. For screening assays the incubation assay consisted of 10 μl of enzyme solution, 10 μl of inhibitor solution (made up in water) and 50 μl of the appropriate 5 mM p-nitrophenyl substrate (3.57 mM final conc.) made up in McIlvaine buffer at the optimum pH for the enzyme.
(§2) The reactions were stopped with 0.4M glycine (pH 10.4) during the exponential phase of the reaction, which was determined at the beginning of the assay using blanks with water, which were incubated for a range of time periods to measure the reaction rate using 5 mM substrate solution. Endpoint absorbances were read at 405 nm with a Biorad microtitre plate reader (Benchmark). Water was substituted for the inhibitors in the blanks.

dendritic cells = conditions: treatment alone
[2] = tested on: spleen cells from Leishmania major infected BALB/c mice; test: Th1:Th2 response in non-healing leishmaniasis model, spleen cells ex vivo; type: cell-based; conditions: for IFN-γ: Table 10.1
α-D-glucosidase [3] = test: Glycosidase inhibition: α-D-glucosidase, Bacillus; type: biochemical, Bacillus stearothermophilus; conditions: 1 mg/ml
Protocol: as §1, §2

spleen cells = test: Cytokine modulation in spleen cells (IFN-γ); type: cell-based, BALB/c mice; conditions: Table 3.1
Protocol: BALB/c male and female mice bred and maintained at the University of Strathclyde under conventional conditions were used at varying age.
Cells suspensions were prepared by using the end of a syringe and grinding the spleen through a wire mesh. The cell suspension was then centrifuged at 1000 rpm for 5 minutes. To remove the erythrocytes, the cell pellet was resuspended in Boyle's solution (Tris 0.17M & Ammonium Chloride 0.16M) and centrifuged again for 5 minutes. The pellet was then washed in medium a further two times, then resuspended in 3 mls medium. A cell count was then carried out.
All spleen cell experiments were carried out in 96-well tissue culture plates. […] Unstimulated wells contained 100 μl of cells and 100 μl of medium. The stimulated wells contained 100 μl of cells plus 50 μl of LPS at 1 μg/ml or 50 μl anti-CD3 at 0.5 μg/ml and 50 μl of medium. The remaining wells contained 100 μl cells, 5 μl of MNLP compound and either 50 μl of anti-CD3 or medium alone.
The appropriate Mabs and standards were used according to the protocol described for IL-12 (described in Example 1, above).

[4] = tested on: N-acetyl-β-D-glucosaminidase; test: Glycosidase inhibition: N-acetyl-β-D-glucosaminidase; type: biochemical, Bovine; conditions: 1 mg/ml
Protocol: as §1, §2

[5] = tested on: Influenza vaccine-specific IgG, IgG1 and IgG2a; set-up: species or system Balb/c mice; conditions: mouse, in vivo
β-D-glucosidase = test: Glycosidase inhibition: β-D-glucosidase, almond; type: biochemical, Almonds (Prunus sp.); conditions: 1 mg/ml
Protocol: as §1, §2

α-L-fucosidase = molecular target: T2, α-L-fucosidase (Bos taurus, UniProt Q2KIM0); test: Glycosidase inhibition: α-L-fucosidase; type: biochemical, Bovine; conditions: 1 mg/ml; read-out: % inhibition, fucosidase
T2 construct: purchased Sigma
T2 sequence (Q2KIM0 23-468): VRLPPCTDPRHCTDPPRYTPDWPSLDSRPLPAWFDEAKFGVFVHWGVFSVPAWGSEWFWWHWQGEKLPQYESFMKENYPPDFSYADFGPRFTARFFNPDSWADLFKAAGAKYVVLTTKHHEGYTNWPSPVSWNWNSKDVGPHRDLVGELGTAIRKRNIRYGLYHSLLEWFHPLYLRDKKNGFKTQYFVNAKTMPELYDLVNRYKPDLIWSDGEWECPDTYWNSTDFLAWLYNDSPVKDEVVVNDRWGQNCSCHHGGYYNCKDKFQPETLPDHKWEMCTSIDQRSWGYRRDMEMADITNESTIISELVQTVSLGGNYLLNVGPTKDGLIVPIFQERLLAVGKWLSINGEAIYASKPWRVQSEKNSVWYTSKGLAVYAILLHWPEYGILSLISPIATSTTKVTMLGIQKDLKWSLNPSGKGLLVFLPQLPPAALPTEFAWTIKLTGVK
Protocol: as §1, §2

α-D-mannosidase = molecular target: T3, α-D-mannosidase (Canavalia ensiformis, UniProt C0HJB3); test: Glycosidase inhibition: α-D-mannosidase; type: biochemical, Jack beans (Canavalia ensiformis); conditions: read-out: % inhibition, mannosidase
T3 construct: purchased Sigma
Protocol: All enzymes were purchased from Sigma, as were the appropriate p-nitrophenyl substrates. Assays were carried out in microtitre plates. Enzymes were assayed in 0.1M citric acid/0.2M di-sodium hydrogen phosphate (McIlvaine) buffers at the optimum pH for the enzyme. All assays were carried out at 20° C.
Endpoint absorbances were read at 405 nm with a Biorad microtitre plate reader (Benchmark). Water was substituted for the inhibitors in the blanks.

[6] = tested on: glycosidase enzymes of Table 4.1; test: Glycosidase inhibition screening, whole enzyme panel; type: biochemical; conditions: 1 mg/ml
Protocol: as §1, §2

Naringinase = test: Glycosidase inhibition: Naringinase; type: biochemical, Penecillium decumbens; conditions: 1 mg/ml
Protocol: as §1, §2

T1 sequence (Q653V7 34-885): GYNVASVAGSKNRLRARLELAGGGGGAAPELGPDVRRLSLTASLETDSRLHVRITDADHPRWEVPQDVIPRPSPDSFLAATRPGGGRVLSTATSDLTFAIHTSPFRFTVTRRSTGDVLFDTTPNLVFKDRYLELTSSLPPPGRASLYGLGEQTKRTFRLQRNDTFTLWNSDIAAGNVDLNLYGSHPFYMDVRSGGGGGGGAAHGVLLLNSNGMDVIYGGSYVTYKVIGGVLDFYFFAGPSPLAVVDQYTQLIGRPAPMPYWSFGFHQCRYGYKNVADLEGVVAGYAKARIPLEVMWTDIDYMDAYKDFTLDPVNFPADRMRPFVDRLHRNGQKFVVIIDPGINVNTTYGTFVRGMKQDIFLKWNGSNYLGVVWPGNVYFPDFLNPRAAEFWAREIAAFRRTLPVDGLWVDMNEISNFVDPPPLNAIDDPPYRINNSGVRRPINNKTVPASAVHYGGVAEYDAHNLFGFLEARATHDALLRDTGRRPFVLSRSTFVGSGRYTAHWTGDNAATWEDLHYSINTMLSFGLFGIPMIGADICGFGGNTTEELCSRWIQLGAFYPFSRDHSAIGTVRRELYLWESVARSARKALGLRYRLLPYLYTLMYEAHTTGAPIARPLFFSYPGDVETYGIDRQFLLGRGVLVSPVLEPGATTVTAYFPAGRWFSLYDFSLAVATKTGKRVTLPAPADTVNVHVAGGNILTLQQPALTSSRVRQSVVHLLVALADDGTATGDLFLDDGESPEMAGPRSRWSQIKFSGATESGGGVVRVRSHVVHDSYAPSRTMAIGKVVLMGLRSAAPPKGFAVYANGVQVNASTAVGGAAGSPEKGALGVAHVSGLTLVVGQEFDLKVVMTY
T3 sequence (C0HJB3 whole entry): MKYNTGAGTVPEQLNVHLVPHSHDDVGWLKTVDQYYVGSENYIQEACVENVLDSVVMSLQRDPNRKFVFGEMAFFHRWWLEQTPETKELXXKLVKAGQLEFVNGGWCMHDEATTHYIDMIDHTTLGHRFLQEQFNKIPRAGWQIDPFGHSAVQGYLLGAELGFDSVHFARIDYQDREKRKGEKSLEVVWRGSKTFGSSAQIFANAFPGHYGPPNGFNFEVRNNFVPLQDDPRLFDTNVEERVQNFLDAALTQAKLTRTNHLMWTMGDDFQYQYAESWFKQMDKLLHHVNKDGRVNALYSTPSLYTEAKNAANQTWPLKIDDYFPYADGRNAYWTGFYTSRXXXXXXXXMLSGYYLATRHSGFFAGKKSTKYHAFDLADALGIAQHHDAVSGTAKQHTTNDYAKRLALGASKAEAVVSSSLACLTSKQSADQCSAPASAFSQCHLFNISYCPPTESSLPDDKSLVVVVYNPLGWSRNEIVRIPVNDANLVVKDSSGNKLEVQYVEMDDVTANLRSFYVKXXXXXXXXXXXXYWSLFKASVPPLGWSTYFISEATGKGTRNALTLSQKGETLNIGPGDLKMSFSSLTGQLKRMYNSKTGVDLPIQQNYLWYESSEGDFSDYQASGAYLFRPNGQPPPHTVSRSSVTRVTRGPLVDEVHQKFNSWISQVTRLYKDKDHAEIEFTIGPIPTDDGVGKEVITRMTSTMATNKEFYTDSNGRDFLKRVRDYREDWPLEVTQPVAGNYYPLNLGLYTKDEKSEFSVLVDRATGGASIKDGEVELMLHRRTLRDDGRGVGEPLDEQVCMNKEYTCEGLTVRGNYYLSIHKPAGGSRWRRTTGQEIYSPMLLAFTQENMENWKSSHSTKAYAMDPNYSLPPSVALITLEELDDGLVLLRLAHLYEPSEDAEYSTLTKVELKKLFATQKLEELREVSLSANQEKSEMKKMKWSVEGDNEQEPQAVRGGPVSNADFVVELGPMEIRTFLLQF

OC[C@H]1[C@@H](O)[C@H](O)[C@H]2[C@@H](O)[C@@H](O)CN21 [3,7-diepi-casuarine (10), (1R,2R,3S,6S,7R,7aR)-3-(hydroxymethyl)-1,2,6,7-tetrahydroxypyrolizidine]
inhibition at 1000 µg/mL (α-D-glucosidase [1]): 7%
IL-2 (dendritic cells): 0.00 units/ml
IFN-γ ([2]; + L. major Ag): 5.5 ng/mL
IFN-γ ([2]; treatment alone): ~0.5 ng/mL
IL-5 ([2]; Table 10.2, + αCD3): 150 pg/mL
Th2-skewed immune response profile ([2]; ex vivo): clearly reversed
% inhibition, gluc (Bacillus) (α-D-glucosidase [3]): −7%
IFN-γ (spleen cells; + αCD3): 13.50 ng/mL
IFN-γ (spleen cells; treatment alone): 0.22 ng/mL
% inhibition, N-acetyl-β-gluc [4]: −6%
influenza-specific IgG1 response versus vaccine alone [5]: statistically significant increased
influenza-specific IgG2a responses versus vaccine alone [5]: No significant differences
influenza-specific IgGtotal response versus vaccine alone [5]: statistically significant increased
% inhibition, glucosidase (β-D-glucosidase): 5%
inhibition at 1000 µg/mL (α-L-fucosidase): 5%
inhibition at 1000 µg/mL (α-D-mannosidase): 8%
inhibition of the enzymes tested [6]: do not significantly inhibit any of the enzymes tested
% inhibition, Naringinase (Naringinase): 6%
